Results on six test systems are retold here after the supplement of paper PMC6045584.

± gives the standard deviation of the averaged measurements.

Compound in one assay: CCCCCCCCCCCCCCCC(=O)Nc1ccn([C@@H]2O[C@H](CO)[C@@H](O)[C@@H]2C#N)c(=O)n1 [SAPACITABINE]
Put plainly: area under dose-response curve of surviving fraction (unscaled, Aref=0) (surviving fraction x log10(nM)); higher = more resistant. The following applies: exposure time: 5 days; dose range 0.5-1000 nM. The essentials:
(§1)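 Inhibitor was applied to tumour cell lines at eight concentrations (0.5 to 1000 nM) for five days in 384-well plates. Luminescence from CellTiter-Glo, scaled to DMSO-only wells, gave surviving fractions in three screens per line, and these were fitted by 3-parameter logistic regression with the drc R package. The area under the curve is an unscaled activity area. Aref was 0, and dose was on a log10 scale.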

Compound in the next assay: CNC(=O)c1ccc(N2C(=S)N(c3ccc(C#N)c(C(F)(F)F)c3)C(=O)C2(C)C)cc1F [MDV3100]
The assay is described as above. The note with it: exposure time: 5 days; dose range 0.5-1000 nM. The essentials:
as §1

Compound in assay [1]: T1, C=CC(=O)Nc1cc2c(Nc3ccc(F)c(Cl)c3)ncnc2cc1OCCCN1CCOCC1 [CANERTINIB]
The assay is described as above. The note with it: exposure time: 5 days; dose range 0.5-1000 nM. The essentials:
as §1

Compound in another assay: CC[C@@H]1C(=O)N(C)c2cnc(Nc3ccc(C(=O)NC4CCN(C)CC4)cc3OC)nc2N1C1CCCC1 [BI-2536]
The description is as above. The note with it: exposure time: 5 days; dose range 0.5-1000 nM. The essentials:
as §1

Compound in assay [2]: Cn1cc(C2=Nc3cc(NC(=O)C(N)C4CCCCC4)cc4c3C2=CNNC4=O)cn1
Nature of the assay: surviving fraction relative to DMSO-only wells; higher = less growth inhibition. The following applies: exposure time: 5 days. In outline: (§2)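 Inhibitors were tested at 0.5, 1, 5, 10, 50, 100, 500 and 1000 nM, applied continuously for five days beginning 24 hours after log-phase tumour cells were seeded at 250–500 per well in 384-well plates. CellTiter-Glo luminescence served as the viability measure, expressed as surviving fraction against the median of DMSO-only wells. Each line, screened three times, was kept only with replicate Pearson r >0.7 and median Z' >0.3.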

Compound in assay [3]: T1, CANERTINIB
Described as above. The following applies: exposure time: 5 days. In outline:
as §2

With 22RV1 PROSTATE, the “area under dose-response curve” value in the assay with SAPACITABINE stood at 2.46; with MDV3100 it was 3.12; with CANERTINIB [1], 3.32; with BI-2536 it was 0.963. Further, the surviving fraction in assay [2] (0.5 nM) was found to be 1.07 ± 0.021; in assay [2] (1 nM) it was 1.08 ± 0.059; in assay [2] (5 nM), 0.99 ± 0.015; in assay [2] (10 nM), 1.01 ± 0.02; in assay [2] (50 nM) it was 1.03 ± 0.054; in assay [2] (100 nM), 0.854 ± 0.037. Besides, the surviving fraction worked out at 0.626 ± 0.064 in assay [2] (500 nM); 0.489 ± 0.029 in assay [2] (1000 nM); 0.981 ± 0.038 in the assay with CANERTINIB [3] (0.5 nM); 0.913 ± 0.091 with CANERTINIB [3] (1 nM); 0.985 ± 0.033 in the assay with CANERTINIB [3] (5 nM); 1.08 ± 0.25 in the assay with CANERTINIB [3] (10 nM). Moreover, the surviving fraction with CANERTINIB [3] (50 nM) came out at 1.05 ± 0.24; in the assay with CANERTINIB [3] (100 nM), 1.01 ± 0.11; with CANERTINIB [3] (500 nM), 1.12 ± 0.22; with CANERTINIB [3] (1000 nM), 0.905 ± 0.14.
Turning to OS25HAL BONE, the “area under dose-response curve” value came to 2.79 with SAPACITABINE, 3.23 in the assay with MDV3100, 3.13 with CANERTINIB [1] and 0.792 with BI-2536. Further, the surviving fraction amounted to 1.014 ± 0.01 in assay [2] (0.5 nM); 1.03 ± 0.042 in assay [2] (1 nM); 1.005 ± 0.0044 in assay [2] (5 nM); 1.012 ± 0.0078 in assay [2] (10 nM); 0.978 ± 0.045 in assay [2] (50 nM); 0.984 ± 0.012 in assay [2] (100 nM). The surviving fraction stood at 0.0757 ± 0.017 in assay [2] (500 nM); 0.0387 ± 0.0011 in assay [2] (1000 nM); 0.898 ± 0.0053 in the assay with CANERTINIB [3] (0.5 nM); 0.879 ± 0.013 with CANERTINIB [3] (1 nM); 0.886 ± 0.003 with CANERTINIB [3] (5 nM); 0.893 ± 0.042 with CANERTINIB [3] (10 nM). Also, the surviving fraction with CANERTINIB [3] (50 nM) was found to be 1.014 ± 0.0056; with CANERTINIB [3] (100 nM), 1.03 ± 0.019; with CANERTINIB [3] (500 nM) it was 1.01 ± 0.072; in the assay with CANERTINIB [3] (1000 nM), 0.981 ± 0.092.
Consider NY BONE, for which the “area under dose-response curve” value in the assay with SAPACITABINE is 1.91; in the assay with MDV3100 it was 3.06; with CANERTINIB [1], 3.13; in the assay with BI-2536, 0.972. The surviving fraction in assay [2] (0.5 nM) was 1 ± 0.015; in assay [2] (1 nM), 0.984 ± 0.0061; in assay [2] (5 nM), 1.03 ± 0.024; in assay [2] (10 nM), 0.95 ± 0.042; in assay [2] (50 nM), 0.458 ± 0.014; in assay [2] (100 nM) it was 0.182 ± 0.014. In addition, the surviving fraction in assay [2] (500 nM) worked out at 0.0577 ± 0.0055; in assay [2] (1000 nM) it was 0.0377 ± 0.0055; in the assay with CANERTINIB [3] (0.5 nM), 0.892 ± 0.042; in the assay with CANERTINIB [3] (1 nM) it was 0.905 ± 0.031; with CANERTINIB [3] (5 nM) it was 0.998 ± 0.027; in the assay with CANERTINIB [3] (10 nM) it was 0.956 ± 0.028. In addition, the surviving fraction in the assay with CANERTINIB [3] (50 nM) came to 0.965 ± 0.052; with CANERTINIB [3] (100 nM), 0.955 ± 0.01; with CANERTINIB [3] (500 nM) it was 0.825 ± 0.034; with CANERTINIB [3] (1000 nM) it was 0.69 ± 0.009.
Regarding KPD BONE, the “area under dose-response curve” value turned out to be 2.81 with SAPACITABINE, 3.28 in the assay with MDV3100, 3.06 in the assay with CANERTINIB [1] and 1.5 in the assay with BI-2536. The surviving fraction in assay [2] (0.5 nM) was found to be 0.953 ± 0.041; in assay [2] (1 nM), 0.891 ± 0.018; in assay [2] (5 nM) it was 1.19 ± 0.24; in assay [2] (10 nM), 0.977 ± 0.026; in assay [2] (50 nM), 0.84 ± 0.028; in assay [2] (100 nM), 0.389 ± 0.021. In addition, the surviving fraction in assay [2] (500 nM) is 0.0873 ± 0.0023; in assay [2] (1000 nM) it was 0.0763 ± 0.008; in the assay with CANERTINIB [3] (0.5 nM) it was 0.943 ± 0.043; with CANERTINIB [3] (1 nM) it was 0.947 ± 0.076; with CANERTINIB [3] (5 nM), 0.962 ± 0.026; in the assay with CANERTINIB [3] (10 nM), 0.929 ± 0.023. Besides, the surviving fraction with CANERTINIB [3] (50 nM) worked out at 0.917 ± 0.068; in the assay with CANERTINIB [3] (100 nM), 0.922 ± 0.04; with CANERTINIB [3] (500 nM), 0.776 ± 0.048; in the assay with CANERTINIB [3] (1000 nM), 0.497 ± 0.047.
Take G292 BONE: the “area under dose-response curve” value stood at 2.32 with SAPACITABINE, 3.25 in the assay with MDV3100, 3.18 in the assay with CANERTINIB [1] and 0.883 with BI-2536. The surviving fraction in assay [2] (0.5 nM) was 1.03 ± 0.019; in assay [2] (1 nM) it was 0.968 ± 0.051; in assay [2] (5 nM), 1.02 ± 0.077; in assay [2] (10 nM), 1.04 ± 0.029; in assay [2] (50 nM), 0.631 ± 0.018; in assay [2] (100 nM) it was 0.315 ± 0.0083. The surviving fraction turned out to be 0.11 ± 0.0059 in assay [2] (500 nM); 0.0638 ± 0.0015 in assay [2] (1000 nM); 0.914 ± 0.061 in the assay with CANERTINIB [3] (0.5 nM); 0.949 ± 0.028 in the assay with CANERTINIB [3] (1 nM); 0.966 ± 0.055 with CANERTINIB [3] (5 nM); 0.957 ± 0.019 with CANERTINIB [3] (10 nM). The surviving fraction with CANERTINIB [3] (50 nM) was 0.955 ± 0.054; with CANERTINIB [3] (100 nM), 0.997 ± 0.073; with CANERTINIB [3] (500 nM), 0.876 ± 0.046; with CANERTINIB [3] (1000 nM) it was 0.677 ± 0.051.
On to SUM149.B1*.S BREAST, for which the “area under dose-response curve” value with SAPACITABINE came out at 1.89; with MDV3100, 2.91; with CANERTINIB [1] it was 3; in the assay with BI-2536, 2. Moreover, the surviving fraction in assay [2] (0.5 nM) stood at 1.045 ± 0.0088; in assay [2] (1 nM) it was 1.1 ± 0.025; in assay [2] (5 nM) it was 1.01 ± 0.057; in assay [2] (10 nM) it was 1.04 ± 0.033; in assay [2] (50 nM) it was 1.03 ± 0.062; in assay [2] (100 nM), 0.954 ± 0.03. In addition, the surviving fraction in assay [2] (500 nM) was 0.377 ± 0.0042; in assay [2] (1000 nM), 0.225 ± 0.024; with CANERTINIB [3] (0.5 nM) it was 0.921 ± 0.016; with CANERTINIB [3] (1 nM), 0.941 ± 0.015; with CANERTINIB [3] (5 nM), 0.933 ± 0.026; with CANERTINIB [3] (10 nM), 0.917 ± 0.048. For the same test system, the surviving fraction with CANERTINIB [3] (50 nM) is 0.956 ± 0.028; with CANERTINIB [3] (100 nM), 0.972 ± 0.018; in the assay with CANERTINIB [3] (500 nM), 0.868 ± 0.055; with CANERTINIB [3] (1000 nM) it was 0.805 ± 0.029.
